ChEMBL document CHEMBL2203069, “Synthesis and structure-activity relationships of a novel series of pyrimidines as potent inhibitors of TBK1/IKKε kinases” (Bioorg Med Chem Lett, 2012)
Active and inactive are the calls of the source. The rule behind the calls is not given here.

Assays:
[1] = molecular target: MAP kinase-interacting serine/threonine-protein kinase 1 (Homo sapiens, UniProt Q9BUB5); assay: Inhibition of MNK1
Mus musculus [2] = assay: Toxicity in mouse at >= 20 mg/kg, ip; assay type: organism-based; parameters: dose 20 mg/kg, route intraperitoneal; settings: in vivo
[3] = molecular target: T1, Inhibitor of nuclear factor kappa-B kinase subunit epsilon (Homo sapiens, UniProt Q14164); assay: Inhibition of IKKepsilon
T1 sequence (Q14164 whole entry): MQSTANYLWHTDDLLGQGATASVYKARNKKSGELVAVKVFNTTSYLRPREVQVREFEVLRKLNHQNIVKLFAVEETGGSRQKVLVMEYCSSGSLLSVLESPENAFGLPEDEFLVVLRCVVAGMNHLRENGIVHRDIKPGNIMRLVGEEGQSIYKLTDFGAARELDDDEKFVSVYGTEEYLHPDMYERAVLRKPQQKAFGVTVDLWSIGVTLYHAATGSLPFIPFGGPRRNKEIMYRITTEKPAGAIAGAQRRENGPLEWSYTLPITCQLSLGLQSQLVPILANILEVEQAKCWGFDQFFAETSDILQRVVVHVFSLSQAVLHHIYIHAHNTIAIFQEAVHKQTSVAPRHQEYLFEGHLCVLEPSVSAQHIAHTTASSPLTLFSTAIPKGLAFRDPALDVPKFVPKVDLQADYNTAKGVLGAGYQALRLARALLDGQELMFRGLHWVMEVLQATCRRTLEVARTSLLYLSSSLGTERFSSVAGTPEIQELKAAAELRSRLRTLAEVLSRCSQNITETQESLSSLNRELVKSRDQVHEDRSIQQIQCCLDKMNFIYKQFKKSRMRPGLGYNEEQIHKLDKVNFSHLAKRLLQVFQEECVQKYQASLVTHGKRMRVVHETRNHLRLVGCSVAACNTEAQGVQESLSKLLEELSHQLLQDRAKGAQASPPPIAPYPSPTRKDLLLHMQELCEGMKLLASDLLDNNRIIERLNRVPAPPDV

[4] = molecular target: Cyclin-dependent kinase 2 (Homo sapiens, UniProt P24941); assay: Inhibition of CDK2
[5] = molecular target: T2, Serine/threonine-protein kinase BRSK2 (Homo sapiens, UniProt Q8IWQ3); assay: Inhibition of BRSK2
T2 sequence (Q8IWQ3 whole entry): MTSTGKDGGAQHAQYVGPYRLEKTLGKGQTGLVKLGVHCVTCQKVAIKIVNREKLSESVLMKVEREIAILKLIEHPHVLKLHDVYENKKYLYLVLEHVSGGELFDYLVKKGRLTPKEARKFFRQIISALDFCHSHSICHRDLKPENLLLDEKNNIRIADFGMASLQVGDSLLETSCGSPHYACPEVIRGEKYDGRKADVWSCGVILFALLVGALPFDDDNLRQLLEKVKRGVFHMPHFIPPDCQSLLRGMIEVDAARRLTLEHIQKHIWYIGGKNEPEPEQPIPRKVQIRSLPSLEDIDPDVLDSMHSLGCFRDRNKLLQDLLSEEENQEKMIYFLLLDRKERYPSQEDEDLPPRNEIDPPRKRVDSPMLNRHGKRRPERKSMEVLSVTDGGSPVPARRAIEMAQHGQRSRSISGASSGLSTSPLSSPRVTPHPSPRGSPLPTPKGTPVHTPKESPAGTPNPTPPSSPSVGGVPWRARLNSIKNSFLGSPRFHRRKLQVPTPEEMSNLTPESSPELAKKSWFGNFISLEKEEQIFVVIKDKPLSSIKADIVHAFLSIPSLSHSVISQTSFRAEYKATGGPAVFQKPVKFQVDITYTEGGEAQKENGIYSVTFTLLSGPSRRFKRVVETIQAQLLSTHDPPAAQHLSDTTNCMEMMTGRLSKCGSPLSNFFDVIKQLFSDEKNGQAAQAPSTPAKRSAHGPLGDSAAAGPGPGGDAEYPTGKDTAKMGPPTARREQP

[6] = Volume of distribution in CD-1 mouse at 1 mg/kg, iv; assay type: ADME, organism-based; parameters: dose 1 mg/kg, route intravenous; settings: in vivo
[7] = molecular target: T3, Serine/threonine-protein kinase TBK1 (Homo sapiens, UniProt Q9UHD2); assay: Inhibition of TBK1 by radiometry
T3 sequence (Q9UHD2 whole entry): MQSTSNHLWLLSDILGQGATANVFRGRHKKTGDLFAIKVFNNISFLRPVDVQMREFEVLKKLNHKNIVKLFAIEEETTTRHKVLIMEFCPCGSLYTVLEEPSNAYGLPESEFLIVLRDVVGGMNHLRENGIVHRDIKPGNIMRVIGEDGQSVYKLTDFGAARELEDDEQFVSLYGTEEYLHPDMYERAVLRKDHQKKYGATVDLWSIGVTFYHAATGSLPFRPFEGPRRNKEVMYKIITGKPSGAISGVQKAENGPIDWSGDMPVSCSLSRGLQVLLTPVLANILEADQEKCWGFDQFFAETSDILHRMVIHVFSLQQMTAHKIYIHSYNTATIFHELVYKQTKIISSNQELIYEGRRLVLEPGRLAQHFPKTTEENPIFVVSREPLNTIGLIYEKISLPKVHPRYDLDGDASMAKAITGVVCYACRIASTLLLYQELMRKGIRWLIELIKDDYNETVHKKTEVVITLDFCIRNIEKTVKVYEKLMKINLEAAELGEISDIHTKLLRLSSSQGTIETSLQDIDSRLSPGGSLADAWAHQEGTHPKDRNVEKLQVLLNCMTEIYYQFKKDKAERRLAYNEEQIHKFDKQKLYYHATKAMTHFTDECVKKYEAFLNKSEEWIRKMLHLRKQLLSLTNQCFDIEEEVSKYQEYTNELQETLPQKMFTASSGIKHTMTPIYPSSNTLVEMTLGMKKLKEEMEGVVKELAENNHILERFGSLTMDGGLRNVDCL

[8] = molecular target: MAP/microtubule affinity-regulating kinase 3 (Homo sapiens, UniProt P27448); assay: Inhibition of MARK3
[9] = Oral bioavailability in CD-1 mouse at 5 mg/kg; assay type: ADME, organism-based; settings: in vivo
[10] = Efflux ratio of permeability from basolateral to apical side to apical to basolateral side in human Caco2 cells; assay type: ADME, cell-based; settings: Caco-2
[11] = Inhibition of VEGFR
[12] = Half life in CD-1 mouse at 5 mg/kg, po; assay type: ADME, organism-based; parameters: dose 5 mg/kg, route oral; settings: in vivo
[13] = Inhibition of AMPK
[14] = Metabolic stability in human liver microsomes assessed as compound turnover after 40 mins; assay type: ADME, Microsome; settings: read-out: Drug metabolism
Mus musculus [15] = assay: Antiinflammatory activity in mouse assessed as inhibition of LPS-induced IFN-beta production at 15 mg/kg, ip administered 30 mins prior LPS challenge measured 1 hr post challenge by ELISA; assay type: functional, organism-based; parameters: dose 15 mg/kg
Aurora kinase B = Aurora kinase B (Homo sapiens, UniProt Q96GD4); assay: Inhibition of Aurora B
[16] = molecular target: T4, Serine/threonine-protein kinase TBK1 (Mus musculus, UniProt Q9WUN2); assay: Inhibition of TBK1-mediated RANTES release in LPS-stimulated mouse RAW264.7 cells compound incubated for 30 mins prior LPS challenge measured after 6 hrs by ELISA; assay type: cell-based; settings: read-out: IC50
T4 sequence (Q9WUN2 whole entry): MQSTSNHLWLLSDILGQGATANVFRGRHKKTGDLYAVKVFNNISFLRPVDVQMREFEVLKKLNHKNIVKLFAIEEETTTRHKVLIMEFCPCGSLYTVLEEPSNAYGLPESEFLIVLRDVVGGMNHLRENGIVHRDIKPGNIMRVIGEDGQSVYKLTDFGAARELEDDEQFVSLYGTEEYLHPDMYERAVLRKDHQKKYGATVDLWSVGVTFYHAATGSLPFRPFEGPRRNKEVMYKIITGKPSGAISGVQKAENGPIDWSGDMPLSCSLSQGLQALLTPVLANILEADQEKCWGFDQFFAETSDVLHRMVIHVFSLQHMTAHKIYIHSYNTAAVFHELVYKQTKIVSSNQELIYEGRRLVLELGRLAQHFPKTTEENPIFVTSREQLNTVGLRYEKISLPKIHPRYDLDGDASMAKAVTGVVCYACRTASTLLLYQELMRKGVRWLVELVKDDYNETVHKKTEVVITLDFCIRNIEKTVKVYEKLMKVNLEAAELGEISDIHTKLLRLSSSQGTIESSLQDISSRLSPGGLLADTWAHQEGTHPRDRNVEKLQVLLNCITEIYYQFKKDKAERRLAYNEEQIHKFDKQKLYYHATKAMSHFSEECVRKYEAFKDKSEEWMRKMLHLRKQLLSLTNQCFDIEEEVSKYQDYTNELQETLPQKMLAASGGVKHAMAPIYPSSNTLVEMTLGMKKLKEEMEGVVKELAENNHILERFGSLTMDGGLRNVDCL

[17] = Clearance in CD-1 mouse at 1 mg/kg, iv; assay type: ADME, organism-based; parameters: dose 1 mg/kg, route intravenous; settings: in vivo
[18] = Permeability from apical to basolateral side of human Caco2 cells; assay type: ADME, cell-based; settings: Caco-2, read-out: permeability
[19] = Metabolic stability in mouse liver microsomes assessed as compound turnover after 30 mins; assay type: ADME, Microsome; settings: read-out: Drug metabolism
[20] = Half life in CD-1 mouse at 1 mg/kg, iv; assay type: ADME, organism-based; parameters: dose 1 mg/kg, route intravenous; settings: in vivo

Sequence of MAP kinase-interacting serine/threonine-protein kinase 1 (Q9BUB5 whole entry): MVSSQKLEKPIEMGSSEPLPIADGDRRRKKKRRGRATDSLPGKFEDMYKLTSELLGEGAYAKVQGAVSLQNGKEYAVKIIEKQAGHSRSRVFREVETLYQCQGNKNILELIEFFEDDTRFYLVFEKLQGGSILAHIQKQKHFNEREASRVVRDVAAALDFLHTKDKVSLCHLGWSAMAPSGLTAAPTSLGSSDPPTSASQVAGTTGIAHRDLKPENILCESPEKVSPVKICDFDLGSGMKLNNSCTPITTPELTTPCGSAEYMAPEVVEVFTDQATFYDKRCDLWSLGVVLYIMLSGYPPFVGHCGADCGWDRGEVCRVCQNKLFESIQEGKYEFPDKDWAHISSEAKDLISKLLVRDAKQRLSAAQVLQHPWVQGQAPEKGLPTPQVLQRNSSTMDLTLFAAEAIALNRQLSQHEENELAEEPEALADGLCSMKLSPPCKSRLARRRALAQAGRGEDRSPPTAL
Sequence of MAP/microtubule affinity-regulating kinase 3 (P27448 whole entry): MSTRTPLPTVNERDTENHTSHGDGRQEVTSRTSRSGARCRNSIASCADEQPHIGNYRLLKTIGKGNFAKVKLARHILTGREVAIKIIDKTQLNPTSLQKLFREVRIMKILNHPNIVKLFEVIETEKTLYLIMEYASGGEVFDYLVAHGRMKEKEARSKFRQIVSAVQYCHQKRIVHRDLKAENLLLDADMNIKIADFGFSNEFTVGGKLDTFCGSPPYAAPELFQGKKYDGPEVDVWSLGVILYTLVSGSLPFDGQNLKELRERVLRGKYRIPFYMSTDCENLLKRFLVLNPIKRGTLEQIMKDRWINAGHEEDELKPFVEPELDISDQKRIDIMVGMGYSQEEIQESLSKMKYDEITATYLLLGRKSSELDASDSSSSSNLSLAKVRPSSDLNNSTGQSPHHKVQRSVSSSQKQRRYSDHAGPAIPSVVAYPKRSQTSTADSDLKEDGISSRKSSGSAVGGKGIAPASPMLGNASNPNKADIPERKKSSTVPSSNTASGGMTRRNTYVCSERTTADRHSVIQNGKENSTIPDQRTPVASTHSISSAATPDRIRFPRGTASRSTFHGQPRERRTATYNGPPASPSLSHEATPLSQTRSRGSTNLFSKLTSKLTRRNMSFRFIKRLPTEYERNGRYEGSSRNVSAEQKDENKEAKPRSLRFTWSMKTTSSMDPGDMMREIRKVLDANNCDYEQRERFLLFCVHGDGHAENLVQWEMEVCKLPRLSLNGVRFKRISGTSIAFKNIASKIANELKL
Sequence of Aurora kinase B (Q96GD4 whole entry): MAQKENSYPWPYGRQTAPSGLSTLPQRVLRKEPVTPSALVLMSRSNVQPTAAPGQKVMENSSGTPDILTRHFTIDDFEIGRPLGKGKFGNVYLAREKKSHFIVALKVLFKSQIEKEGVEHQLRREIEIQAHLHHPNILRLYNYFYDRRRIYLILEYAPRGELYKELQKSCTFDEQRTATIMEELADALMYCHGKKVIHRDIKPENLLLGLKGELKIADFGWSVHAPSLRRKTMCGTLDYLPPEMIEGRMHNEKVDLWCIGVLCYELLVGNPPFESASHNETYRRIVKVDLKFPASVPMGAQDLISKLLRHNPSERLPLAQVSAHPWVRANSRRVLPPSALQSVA

Row | Structure (SMILES) | IC50 [1] [µM] | IC50 [3] [µM] | IC50 [4] [µM] | IC50 [5] [µM] | IC50 [7] [µM] | IC50 [8] [µM] | efflux ratio [10] | IC50 [11] [µM] | IC50 [13] [µM] | metabolised at 40 min [14] [%] | IC50 (Aurora kinase B) [µM] | IC50 [16] [µM] | Papp A→B [18] [nm/s] | metabolised at 0.5 h [19] [%] | also measured
1 | Cn1cc(Nc2ncc(C3CC3)c(NCCCNC(=O)C3CCC3)n2)cn1 | 20 | 0.1 | 0.11 | 3.7 | 0.008 | 0.02 | 8 | 1.4 | 1.8 | 0 | 0.19 | 0.17 | 74 | 21 | Activity (Mus musculus [2]): Toxic; Vd [6]: 1.79 L/kg; bioavailability [9]: 25%; half-life [12]: 75 min; inhibition (Mus musculus [15]): Active; clearance [17]: 4.74 L/h/kg; half-life [20]: 27 min
2 | O=C(NCCCNc1nc(Nc2ccc(N3CCOCC3)cc2)ncc1C1CC1)C1CCC1 | 19 | 0.03 | 0.63 | 1.9 | 0.006 | 0.012 | 1 | 3.6 | 0.55 | 18 | 0.7 | 0.058 | 340 | 53 | 
